Patent US10829497B2, “Crystal form II of thienopyridine derivative bisulfate and preparation method therefor and use thereof” (ZHONGRONG KAITE (BEIJING) BIOTECHNOLOGY CO., LTD., priority 2017, dated 2020)
Like-named read-outs stand apart in the source and are kept apart here.

Description: Stability Study of the Hydrogen Sulfate Crystal Form I and Form II of the Compound of Formula I Under High Temperature and High Humidity Conditions
Setting the hydrogen sulfate crystal form I and form II of the compound of formula I at temperature of 60° C. and high humidity (25° C., relative humidity of 90%±5%) respectively for 10 days. Samples were taken on the 0, 5th and 10th days and determined by high performance liquid chromatography to investigate the changes in impurities.
Chromatographic conditions: Agilent 1100 for high performance liquid chromatography; chromatographic column ULTRON ES-OVM (5 μm, 4.6 mm×150 mm); mobile phase 0.01 mol/L potassium dihydrogen phosphate aqueous solution-acetonitrile (80:20); detection wavelength 220 nm; column temperature 30° C.; flow rate 1.0 mL/min; injection volume 10 μL.
Test method: accurately weighting 5 mg of the test probe, placing it in a 10 mL volumetric flask, adding 1 mL of methanol, dissolving with ultrasound, diluting to the mark with mobile phase and shaking to make a test solution with a concentration of 0.5 mg/mL. Precisely injecting 10 μL of the test solution into the liquid chromatography, recording the chromatogram and calculating the total content of impurities according to peak area normalization method.

Total Impurity Content (peak area %) (High Humidity (25° C., relative humidity of 90%±5%), 0 day, listed as I) | Total Impurity Content (peak area %) (High Humidity (25° C., relative humidity of 90%±5%), 5th day, listed as I) | Total Impurity Content (peak area %) (High Humidity (25° C., relative humidity of 90%±5%), 10th day, listed as I) | Total Impurity Growth Rate (High Humidity (25° C., relative humidity of 90%±5%), 10 days, listed as I) | Total Impurity Content (peak area %) (High Temperature (60° C.), 0 day, listed as I) | Total Impurity Content (peak area %) (High Temperature (60° C.), 5th day, listed as I) | Total Impurity Content (peak area %) (High Temperature (60° C.), 10th day, listed as I) | Total Impurity Growth Rate (High Temperature (60° C.), 10 days, listed as I) | Total Impurity Content (peak area %) (High Humidity (25° C., relative humidity of 90%±5%), 0 day, listed as II) | Total Impurity Content (peak area %) (High Humidity (25° C., relative humidity of 90%±5%), 5th day, listed as II) | Total Impurity Content (peak area %) (High Humidity (25° C., relative humidity of 90%±5%), 10th day, listed as II) | Total Impurity Growth Rate (High Humidity (25° C., relative humidity of 90%±5%), 10 days, listed as II) | Total Impurity Content (peak area %) (High Temperature (60° C.), 0 day, listed as II) | Total Impurity Content (peak area %) (High Temperature (60° C.), 5th day, listed as II) | Total Impurity Content (peak area %) (High Temperature (60° C.), 10th day, listed as II) | Total Impurity Growth Rate (High Temperature (60° C.), 10 days, listed as II) | stability compared with the hydrogen sulfate form I (high temperature and high humidity conditions, 10 days) | Structure (SMILES)
0.386 peak area % | 0.438 peak area % | 0.576 peak area % | 49.2% | 0.386 peak area % | 0.597 peak area % | 0.812 peak area % | 110% |  |  |  |  |  |  |  |  |  | [2H]C([2H])([2H])OC(=O)[C@H](c1ccccc1Cl)N1CCc2sccc2C1 [Crystal Form I, Methyl-d3 (2S)-2-(2-chlorophenyl)-2-(6,7-dihydrothieno[3,2-c]pyridin-5(4H)-yl)acetate]
 |  |  |  |  |  |  |  | 0.372 peak area % | 0.409 peak area % | 0.533 peak area % | 43.3% | 0.372 peak area % | 0.526 peak area % | 0.737 peak area % | 98.1% | better stability | [2H]C([2H])([2H])OC(=O)[C@H](c1ccccc1Cl)N1CCc2sccc2C1 [Crystal Form II, Methyl-d3 (2S)-2-(2-chlorophenyl)-2-(6,7-dihydrothieno[3,2-c]pyridin-5(4H)-yl)acetate]
